We go through 7 compounds from US20050085528A1 (priority 2003, published 2005).

Data set [1] deals with Replicon cells. Kind of data set: cells. The settings on record: read-out: Cytostatic (IC50).
A short description of another data set: in vitro. The note with it: replicon cells (lucubineo cells).
Another data set concerns HCV replicon RNA. Kind of data set: Quantitative RT-PCR (Taqman) of replicon RNA. The data set is classed as cell-based. The note with it: FIG. 2A. How it is done:
Statin-treated cells in the duplicate clear plate were analysed for cytotoxicity by addition of 10 μL WST-1 reagent (Roche Biosciences) to each well and incubated for 37° C. for 60 minutes. After vigorous shaking, the plate was read at 450 nm. The supernatent was removed and the monolayer washed with PBS prior to addition 100 μL RLT lysis buffer (Qiagen RNAeasy kit) to each test well, followed by vigorous resuspension to ensure uniform lysis of all cells. Total RNA was extracted according to Qiagen RNAeasy protocols recommended by manufacturer. Briefly, 0.1 μg total RNA was reverse transcribed using random hexamers and 20% cDNA produced was used as a template in a Taqman reaction (Universal PCR Master Mix protocol p\n 43044449 Rev B).
These procedures are described in Perkin Elmer Biosystems User Bulletin 2. Briefly, the quantity of replicon RNA in a given sample was determined relative to the untreated control and normalised with respect to actin. Having established that the efficiencies of the replicon and actin PCR reactions were similar (data not shown), the relative quantity of replicon RNA was described by 2^−ΔΔCt where, ΔΔCt=ΔCt(test)−ΔCt(control) ΔCt(test)[…]−Ct(actin) and ΔCt(control)=Ct(control)−Ct(actin) Cholesterol Biosynthesis Assay
(In general: Real-time PCR tracks product formation cycle by cycle.)

Data set [2] relates to HCV replicon (Huh 5-2 [I389luc-ubi-neo-NS3-3′/5.1]). The data set can be described thus: microbe, parasite or virus in culture. The class given is cell-based. The settings on record: for Inhibition of luciferase expression in replicon cells (in words): FIG. 2; for IC50: Hepatitis C virus, Huh-5-2, luciferase, 72 hours statin treatment. For orientation: In antiviral work, replicon cells carry a viral genome segment that copies itself.

For data set [3] the following is noted: 6- to 12-month course; cited from earlier work.
The test system of data set [4] is Replicon cells. The note with it: @ 10 μM.
The next data set deals with EMCV IRES. Kind of data set: Green fluorescent protein assay (pIRES2-EGFP). The note with it: atorvastatin concentrations which reduced HCV replicon activity (10 uM, FIG. 5). The data set is classed as cell-based, Encephalomyocarditis virus.
The test system of data set [5] is Replicon cells.

Description for EMCV IRES: Replicon cells were electroporated in cytomix buffer at 10^7 cells/mL at 960 uF, 270 V with varying amounts pIRES2-EGFP. Cell viability was monitored by trypan blue staining and cell counting. Aliquots of cells (2×10^4) were plated out in clear bottomed black 96 well plates and incubated for 24 hours. The cells were rinsed with PBS and fluorescence output read using an Analyst HT (LJL Biosystems).
Impairment of this function was examined in the presence of statins. Replicon cells were transfected with varying amounts of pIRES2-EGFP in which the green fluorescent protein reporter is expressed by a EMCV IRES.

For orientation: IC50 means the concentration that gives 50% inhibition. For `CCC(C)(C)C(=O)O[C@H]1C[C@@H](C)C=C2C=C[C@H](C)[C@H](CC[C@@H]3C[C@@H](O)CC(=O)O3)[C@H]21` [Simvastatin], the IC50 in the data set with Replicon cells [1] turned out to be 28 µM. Inhibition in “in vitro” was half-maximal at 64.7 µM (IC50 at 72 h).

On to `CC[C@H](C)C(=O)O[C@H]1C[C@@H](C)C=C2C=C[C@H](C)[C@H](CC[C@@H]3C[C@@H](O)CC(=O)O3)[C@H]21` [Lovastatin], for which the “Replicon RNA by RT-PCR, normalised to beta actin” value with HCV replicon RNA is given as “quantitative reduction of replicon RNA”. The “Inhibition of luciferase expression in replicon cells (in words)” value in data set [2] is “dose dependent inhibition”. Moreover, the IC50 in data set [2] is 7.9 µM; with Replicon cells [1] it was 89.3 µM. The IC50 at 72 h in the data set “in vitro” amounted to 158 µM.

On to Alpha interferon, for which, in data set [3], the “Patients in whom an autoimmune condition is triggered” value is on record as “about 2%”.

Turning to `CC(C)c1c(C(=O)Nc2ccccc2)c(-c2ccccc2)c(-c2ccc(F)cc2)n1CC[C@@H](O)C[C@@H](O)CC(=O)O` (relative stereo) [Atorvastatin, [R-(R*,R*)]-2-(4-fluorophenyl)-b,d-dihydroxy-5-(1-methylethyl)-3-phenyl-4[(phenylamino)carbonyl]-IH-pyrrole-1-heptanoic acid], the “Cytotoxicity, % at one concentration” value in the data set on Replicon cells [4] was 18.3% @ 10 μM. Also, the “Effect on GFP signal driven by EMCV IRES” value in the data set with EMCV IRES is reported as “no effect”. In addition, the “Inhibition of luciferase expression in replicon cells (in words)” value in data set [2] was “increased antiviral activity compared to lovastatin”. Also, the IC50 in data set [2] was 4.1 µM; in the data set on Replicon cells [1], 2.5 µM.

As to `COCc1c(C(C)C)nc(C(C)C)c(/C=C/[C@@H](O)C[C@@H](O)CC(=O)O)c1-c1ccc(F)cc1` [Cerivastatin], the values for the IC50 (in data set [2]; in the data set with Replicon cells [1]) were 1.1 µM and 5.5 µM, respectively. The compound further registered an IC50 at 72 h in the data set “in vitro” of 4.9 µM.

With `CC[C@H](C)C(=O)O[C@H]1C[C@H](O)C=C2C=C[C@H](C)[C@H](CC[C@@H](O)C[C@@H](O)CC(=O)O)[C@H]21` [Pravastatin], the “Cytostatic, % at one concentration” value in the data set with Replicon cells [5] is on record as 25% @ 500,000 μM. For the same compound, it took 322 µM to reach half-maximal inhibition in data set [2] (IC50).

For the compound `C[C@@](O)(CCO)CC(=O)O` [MVA, mevalonic acid], the “Rescue of atorvastatin inhibition of HCV replicon activity by MVA” value in data set [2] (14 μM MVA, 10 uM atorvastatin, FIG. 3A) is listed as “begins to alleviate the atorvastatin inhibition”; in data set [2] (further addition of MVA, 10 μM atorvastatin), “completely restores replicon activity”. Moreover, in data set [2] (absence of statin, FIG. 3B), the “Response of control HCV replicon cells to MVA” value is given as “do not respond”.
